The record followed here is patent US12054475B2, “Substituted heterocycles as aldehyde dehydrogenase inhibitors” (KayoThera Inc., priority 2021, dated 2024).

One series has as its target hALDH1a2 (Homo sapiens (Human), UniProt O94788). Nature of the series: Aldh1a2 enzyme inhibition assay (recombinant enzyme, resorufin fluorescence). It is filed as biochemical.
Another series concerns the target mALDH1a3 (Mus musculus (Mouse), UniProt Q9JHW9). Nature of the series: Aldh1a3 enzyme inhibition assay (recombinant enzyme, resorufin fluorescence). It is filed as biochemical. As to the method: (§1) Cells were resuspended in 10 mM […] pH 7.4, 10 mM KCl. […] Recombinant enzyme and inhibitor added immediately before assay. Reaction rate measured by resorufin fluorescence.

A further series concerns the target hALDH1a3 (Homo sapiens (Human), UniProt P47895). The series is described as above. Format: biochemical. As to the method:
as §1

The target of another series is mALDH1a2 (Mus musculus (Mouse), UniProt Q62148). Nature of the series: Aldh1a2 enzyme inhibition assay (recombinant enzyme, resorufin fluorescence). It is filed as biochemical. An excerpt: Recombinant enzyme and inhibitor added immediately before assay. Reaction rate measured by resorufin fluorescence.
Sequence of mALDH1a2 (Q62148 whole entry): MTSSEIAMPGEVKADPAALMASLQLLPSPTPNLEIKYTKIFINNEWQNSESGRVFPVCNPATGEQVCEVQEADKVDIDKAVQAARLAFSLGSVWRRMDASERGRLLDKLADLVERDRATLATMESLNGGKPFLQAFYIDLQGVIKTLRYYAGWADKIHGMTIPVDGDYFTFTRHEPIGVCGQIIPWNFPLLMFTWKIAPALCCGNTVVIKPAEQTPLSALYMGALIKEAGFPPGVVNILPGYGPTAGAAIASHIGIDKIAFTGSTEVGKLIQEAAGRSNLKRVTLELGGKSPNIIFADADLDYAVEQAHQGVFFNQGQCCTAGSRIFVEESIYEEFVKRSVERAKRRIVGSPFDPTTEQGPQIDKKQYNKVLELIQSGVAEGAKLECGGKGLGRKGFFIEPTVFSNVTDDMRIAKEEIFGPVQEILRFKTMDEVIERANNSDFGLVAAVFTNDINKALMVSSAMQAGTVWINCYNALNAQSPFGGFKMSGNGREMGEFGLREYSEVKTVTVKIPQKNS
Series [1] is described as follows: Pharmacokinetic profiling in mice. As to conditions: male CD-1/C57BL/6 mice.

pIC50: −log10 of the molar value. Where two headings read alike, the source gives them in different places.

Sequence of hALDH1a2 (O94788 whole entry): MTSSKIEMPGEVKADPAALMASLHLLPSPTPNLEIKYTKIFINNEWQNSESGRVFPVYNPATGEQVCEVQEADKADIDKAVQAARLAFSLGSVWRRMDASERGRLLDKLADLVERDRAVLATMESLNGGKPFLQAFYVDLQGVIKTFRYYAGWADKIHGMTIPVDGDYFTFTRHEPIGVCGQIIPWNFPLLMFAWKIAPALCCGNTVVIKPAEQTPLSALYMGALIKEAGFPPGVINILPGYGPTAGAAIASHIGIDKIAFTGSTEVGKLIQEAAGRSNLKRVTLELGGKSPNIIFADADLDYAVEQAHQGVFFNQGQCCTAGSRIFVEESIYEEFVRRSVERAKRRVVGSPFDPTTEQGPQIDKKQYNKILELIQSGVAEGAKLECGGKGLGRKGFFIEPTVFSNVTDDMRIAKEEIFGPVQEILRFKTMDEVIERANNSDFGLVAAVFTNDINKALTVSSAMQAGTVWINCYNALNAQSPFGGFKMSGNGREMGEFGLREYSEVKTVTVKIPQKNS
Sequence of hALDH1a3 (P47895 whole entry): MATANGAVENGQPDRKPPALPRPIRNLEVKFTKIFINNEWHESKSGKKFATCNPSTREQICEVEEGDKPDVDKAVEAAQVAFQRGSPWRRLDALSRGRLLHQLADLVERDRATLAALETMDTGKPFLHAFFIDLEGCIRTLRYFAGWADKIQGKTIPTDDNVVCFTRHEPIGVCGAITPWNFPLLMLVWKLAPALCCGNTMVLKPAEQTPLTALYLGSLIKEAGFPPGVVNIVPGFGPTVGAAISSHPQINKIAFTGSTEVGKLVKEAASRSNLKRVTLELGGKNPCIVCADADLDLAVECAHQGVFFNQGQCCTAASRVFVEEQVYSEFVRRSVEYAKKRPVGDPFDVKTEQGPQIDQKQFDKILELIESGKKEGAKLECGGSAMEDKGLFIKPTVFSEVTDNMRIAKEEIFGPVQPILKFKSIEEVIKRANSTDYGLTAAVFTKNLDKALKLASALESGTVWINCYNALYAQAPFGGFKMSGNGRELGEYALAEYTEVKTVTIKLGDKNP
Sequence of mALDH1a3 (Q9JHW9 whole entry): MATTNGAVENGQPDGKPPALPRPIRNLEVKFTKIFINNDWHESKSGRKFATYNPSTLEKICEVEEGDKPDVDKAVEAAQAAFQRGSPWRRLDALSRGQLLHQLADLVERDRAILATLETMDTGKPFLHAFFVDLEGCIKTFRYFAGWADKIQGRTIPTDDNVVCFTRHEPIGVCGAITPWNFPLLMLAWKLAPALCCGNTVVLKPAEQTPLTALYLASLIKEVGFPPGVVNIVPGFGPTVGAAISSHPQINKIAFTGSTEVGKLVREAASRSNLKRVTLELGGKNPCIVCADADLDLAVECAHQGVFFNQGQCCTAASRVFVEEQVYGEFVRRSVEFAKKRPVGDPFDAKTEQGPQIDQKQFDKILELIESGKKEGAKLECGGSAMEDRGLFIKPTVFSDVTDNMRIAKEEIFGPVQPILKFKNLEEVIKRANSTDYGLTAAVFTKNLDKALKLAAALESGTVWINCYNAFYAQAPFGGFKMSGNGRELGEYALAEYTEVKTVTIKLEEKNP

Consider “2-ethyl-N-(8-methyl-2-oxo-3,4-dihydro-1H-quinolin-6-yl) piperazine-1-carboxamide [Compound 192]”, for which the pIC50 at hALDH1a2 is < 5.00; on mALDH1a3 (read-out: mAldh1a3 IC50), < 5.30; on hALDH1a3 (read-out: hAldh1a3 IC50), < 5.30; at mALDH1a2, < 5.00.
As for `CCC1COCCN1C(=O)Nc1cc(C)c2c(c1)CCC(=O)N2` (racemic) [Compound 193], the pIC50 on mALDH1a3 (read-out: mAldh1a3 IC50) and on hALDH1a3 (read-out: hAldh1a3 IC50) was < 5.30 each time.
Regarding `CCc1cnccc1C(=O)Nc1cc2c(cc1F)NC(=O)CC2` [Compound 1], the pIC50 on hALDH1a2 is 5.48; on mALDH1a3, 6.60 to 7.00; at hALDH1a3, 6.60 to 7.00; on mALDH1a2, 5.48.
`CCc1ccccc1C(=O)Nc1cc2c(cc1F)NC(=O)CC2` [Compound 4]: the “plasma half-life, IV bolus dosing” value in series [1] (1 mg/kg intravenous) amounted to 1.22 h. For the same compound, the “plasma half-life, PO oral gavage dosing” value in series [1] (10 mg/kg oral gavage) came to 1.70 h. Besides, the oral bioavailability in series [1] (10 mg/kg oral gavage, 1 mg/kg intravenous) is 62.5%.
As to `CCc1cnccc1C(=O)Nc1ccc2c(c1)CCC(=O)N2` [Compound 9], the pIC50 is 6.23 at hALDH1a2, 6.00 to 6.60 at mALDH1a3 (read-out: mAldh1a3 IC50), > 7.00 at hALDH1a3 (read-out: hAldh1a3 IC50) and 5.95 on mALDH1a2.
The matching figures for `CCn1cncc1C(=O)Nc1ccc2c(c1)CCC(=O)N2` [Compound 49]: < 5.00, < 5.30, < 5.30 and < 5.00.
The matching figures for `O=C1CCc2cc(NC(=O)c3ccncc3CC(F)(F)F)ccc2N1` [Compound 53]: 6.43, > 7.00, > 7.00 and 6.31.
The matching figures for `O=C1CCc2cc(NC(=O)c3ccncc3CC3CC3)ccc2N1` [Compound 59]: 6.28, > 7.00, > 7.00 and 6.31.
As for `CCc1cnc(Cl)cc1C(=O)Nc1ccc2c(c1)CCC(=O)N2` [Compound 77], the pIC50 is 6.38 at hALDH1a2 and 6.48 on mALDH1a2.
Turning to `O=C1CCc2cc(NC(=O)c3ccncc3CC(F)(F)F)c(F)cc2N1` [Compound 82], the pIC50 is 6.21 at hALDH1a2, 6.60 to 7.00 at mALDH1a3 (read-out: mAldh1a3 IC50), > 7.00 at hALDH1a3 (read-out: hAldh1a3 IC50) and 6.03 on mALDH1a2.
The matching figures for `CCc1cnccc1C(=O)Nc1cc2c(cc1C)NC(=O)CC2` [Compound 83]: 5.05, 5.30 to 6.00, 6.60 to 7.00 and 5.46.
The matching figures for `CCc1cnccc1C(=O)Nc1cc(C#N)c2c(c1)CCC(=O)N2` [Compound 139, N-(8-cyano-2-oxo-3,4-dihydro-1H-quinolin-6-yl)-3-ethyl-pyridine-4-carboxamide]: 5.00, > 7.00, 6.60 to 7.00 and 5.83.
The matching figures for `CCc1cnccc1C(=O)Nc1cc(F)c2c(c1)CCC(=O)N2` [Compound 141, 3-ethyl-N-(8-fluoro-2-oxo-3,4-dihydro-1H-quinolin-6-yl)pyridine-4-carboxamide]: 6.54, > 7.00, > 7.00 and 6.74.
As for `CCc1cnccc1C(=O)Nc1cc(Cl)c2c(c1)CCC(=O)N2` [Compound 142, N-(8-chloro-2-oxo-3,4-dihydro-1H-quinolin-6-yl)-3-ethyl-pyridine-4-carboxamide], the pIC50 on hALDH1a2 is 7.24; at mALDH1a3 (read-out: mAldh1a3 IC50), > 7.00; at hALDH1a3 (read-out: hAldh1a3 IC50) it was > 7.00; on mALDH1a2 it was 7.20.
As to `CCc1cnccc1C(=O)Nc1cc2c(c(F)c1F)NC(=O)CC2` [Compound 143, N-(7,8-difluoro-2-oxo-3,4-dihydro-1H-quinolin-6-yl)-3-ethyl-pyridine-4-carboxamide], the pIC50 was 6.17 at hALDH1a2, > 7.00 at mALDH1a3 (read-out: mAldh1a3 IC50), > 7.00 at hALDH1a3 (read-out: hAldh1a3 IC50) and 6.23 on mALDH1a2.
With `CCc1cnccc1C(=O)Nc1cc(CC)c2c(c1)CCC(=O)N2` [Compound 144, 3-ethyl-N-(8-ethyl-2-oxo-3,4-dihydro-1H-quinolin-6-yl)pyridine-4-carboxamide], the negative-log IC50 (pIC50) was 6.52 at hALDH1a2, > 7.00 at mALDH1a3 (read-out: mAldh1a3 IC50), > 7.00 on hALDH1a3 (read-out: hAldh1a3 IC50) and 6.34 at mALDH1a2.
As to `CCc1cnccc1C(=O)Nc1cc2c(c3ccncc13)NC(=O)CC2` [Compound 145, 3-ethyl-N-(2-oxo-3,4-dihydro-1H-1,8-phenanthrolin-6-yl)pyridine-4-carboxamide], the pIC50 is 6.92 on hALDH1a2, > 7.00 on mALDH1a3 (read-out: mAldh1a3 IC50), > 7.00 at hALDH1a3 (read-out: hAldh1a3 IC50) and 6.76 on mALDH1a2.
Regarding `CCc1cnccc1C(=O)Nc1cc2c(c(C)c1F)NC(=O)CC2` [Compound 146, 3-ethyl-N-(7-fluoro-8-methyl-2-oxo-3,4-dihydro-1H-quinolin-6-yl)pyridine-4-carboxamide], the pIC50 at hALDH1a2 was 6.45; on mALDH1a3 (read-out: mAldh1a3 IC50), > 7.00; at hALDH1a3 (read-out: hAldh1a3 IC50), > 7.00; on mALDH1a2 it was 6.39.
For the compound `CCc1cnccc1C(=O)Nc1cc2c(c(C)c1C)NC(=O)CC2` [Compound 147, N-(7,8-dimethyl-2-oxo-3,4-dihydro-1H-quinolin-6-yl)-3-ethyl-pyridine-4-carboxamide], the pIC50 is 6.37 at hALDH1a2, 6.00 to 6.60 on mALDH1a3 (read-out: mAldh1a3 IC50), 6.60 to 7.00 on hALDH1a3 (read-out: hAldh1a3 IC50) and 6.45 on mALDH1a2.
On to `Cc1cc(NC(=O)c2ccncc2CC2CC2)cc2c1NC(=O)CC2` [Compound 149, 3-(cyclopropylmethyl)-N-(8-methyl-2-oxo-3,4-dihydro-1H-quinolin-6-yl)pyridine-4-carboxamide], for which the pIC50 on mALDH1a3 (read-out: mAldh1a3 IC50) was > 7.00; on hALDH1a3 (read-out: hAldh1a3 IC50) it was > 7.00; at mALDH1a2, 6.93.
As to `CCc1cnc(Cl)cc1C(=O)Nc1cc(C)c2c(c1)CCC(=O)N2` [Compound 150, 2-chloro-5-ethyl-N-(8-methyl-2-oxo-3,4-dihydro-1H-quinolin-6-yl)pyridine-4-carboxamide], the pIC50 on hALDH1a2 was 6.92; at mALDH1a3 (read-out: mAldh1a3 IC50) it was > 7.00; on hALDH1a3 (read-out: hAldh1a3 IC50), > 7.00; at mALDH1a2, 6.88.
Consider `Cc1cc(NC(=O)c2ccnc3c2CCO3)cc2c1NC(=O)CC2` [Compound 152, N-(8-methyl-2-oxo-3,4-dihydro-1H-quinolin-6-yl)-2,3-dihydrofuro[2,3-b]pyridine-4-carboxamide], for which the pIC50 was 6.09 on hALDH1a2, 6.00 to 6.60 at mALDH1a3 (read-out: mAldh1a3 IC50), 5.30 to 6.00 at hALDH1a3 (read-out: hAldh1a3 IC50) and 6.08 at mALDH1a2.
As to `Cc1cc(NC(=O)c2ccnc3c2CCN3)cc2c1NC(=O)CC2` [Compound 153, N-(8-methyl-2-oxo-3,4-dihydro-1H-quinolin-6-yl)-2,3-dihydro-1H-pyrrolo[2,3-b]pyridine-4-carboxamide], the negative logarithm of the IC50 (pIC50) was 6.31 on hALDH1a2, 6.00 to 6.60 at mALDH1a3 (read-out: mAldh1a3 IC50), 5.30 to 6.00 on hALDH1a3 (read-out: hAldh1a3 IC50) and 6.44 on mALDH1a2.
The matching figures for `CCc1cnccc1C(=O)Nc1cnc2c(c1)CCC(=O)N2` [Compound 154, 3-ethyl-N-(7-oxo-6,8-dihydro-5H-1,8-naphthyridin-3-yl)pyridine-4-carboxamide]: 5.32, 6.00 to 6.60, 5.30 to 6.00 and 5.09.
Taken in the same sequence, the figures for `Cc1cc(NC(=O)c2ccncc2CC2CCC2)cc2c1NC(=O)CC2` [Compound 155] were 6.08, 5.30 to 6.00, 6.00 to 6.60 and 5.89.
The matching figures for `CCc1cnccc1C(=O)Nc1cc2c(cn1)NC(=O)CC2` [Compound 159, 3-ethyl-N-(2-oxo-3,4-dihydro-1H-1,7-naphthyridin-6-yl)pyridine-4-carboxamide]: 5.56, 6.00 to 6.60, 6.00 to 6.60 and 5.50.
Regarding `Cc1cc(Nc2ncc3ccccc3n2)cc2c1NC(=O)C(C)(C)C2` [Compound 160, 3,3,8-trimethyl-6-(quinazolin-2-ylamino)-1,4-dihydroquinolin-2-one], the negative-log IC50 (pIC50) is 6.79 on hALDH1a2, < 5.30 at mALDH1a3 (read-out: mAldh1a3 IC50), < 5.30 on hALDH1a3 (read-out: hAldh1a3 IC50) and 6.75 on mALDH1a2.
Consider `Cc1cc(Nc2cnc3ccccc3n2)cc2c1NC(=O)C(C)(C)C2` [Compound 161, 3,3,8-trimethyl-6-(quinoxalin-2-ylamino)-1,4-dihydroquinolin-2-one], for which the pIC50 at hALDH1a2 is 7.05; on mALDH1a3 (read-out: mAldh1a3 IC50) it was 6.00 to 6.60; at hALDH1a3 (read-out: hAldh1a3 IC50), < 5.30; at mALDH1a2, 6.94.
The matching figures for `CCc1nnccc1C(=O)Nc1cc(C)c2c(c1)CCC(=O)N2` [Compound 166, 3-ethyl-N-(8-methyl-2-oxo-3,4-dihydro-1H-quinolin-6-yl) pyridazine-4-carboxamide]: 5.80, 6.00 to 6.60, > 7.00 and < 5.00.
As to `O=C1CCc2cc(NC(=O)c3ccncc3CC(F)(F)F)c(F)c(F)c2N1` [Compound 167, N-(7,8-difluoro-2-oxo-3,4-dihydro-1H-quinolin-6-yl)-3-(2,2,2-trifluoroethyl) pyridine-4-carboxamide], the pIC50 on hALDH1a2 is 6.12; on mALDH1a3 (read-out: mAldh1a3 IC50), > 7.00; on hALDH1a3 (read-out: hAldh1a3 IC50), > 7.00; on mALDH1a2, 6.09.
Regarding `O=C1CCc2cc(NC(=O)c3ccncc3CC(F)(F)F)cc(Cl)c2N1` [Compound 168, N-(8-chloro-2-oxo-3,4-dihydro-1H-quinolin-6-yl)-3-(2,2,2-trifluoroethyl) pyridine-4-carboxamide], the negative logarithm of the IC50 (pIC50) is 7.15 on hALDH1a2 and 7.04 on mALDH1a2.
